Data: patent US8889620B2, “Pharmaceutical compositions comprising peptide antagonists of vascular endothelial growth factor” (Children's Medical Center Corporation, priority 1997, dated 2014)
Entries after “also recorded” stand apart in the source; their conditions may differ. Where no end group is shown, it is not given here.

Legend:
KDR/Flk-1 [1] = assay: Cross-linking of 125I-VEGF165 to KDR/Flk-1 on HUVEC; assay type: binding, human; details: 15 ug/ml fusion protein, FIG. 4
Description: FIG. 4. GST-EX 7+8 fusion protein inhibits cross-linking of ^125I-VEGF165 to ^125I-VEGF165R and to KDR/Flk-1. ^125I-VEGF165 (5 ng/ml) was bound to subconfluent cultures of HUVEC (lanes 1 and 2) and MDA-MB-23 1 cells (lanes 3 and 4) in 6-cm dishes. The binding was carried out in the presence (lanes 2 and 4) or the absence (lanes 1 and 3) of 15 ug/ml GST-Ex 7+8. Heparin (1 ug/ml) was added to each dish. At the end of a 2-h incubation, ^125I-VEGF165 was chemically cross-linked to the cell surface. The cells were lysed, and proteins were resolved by 6% SDS-PAGE. The gel was dried and exposed to x-ray film.
(§1) Binding and cross-linking experiments using 125I-VEGF165 and 125I-VEGF121 were performed at described previously (Gitay-Goren, et al., J. Biol. Chem., 287, 6003-6096 (1992), Soker, et al., J: Biol. Chem., 271,5761-5767 (1996)). VEGF binding was quantified by measuring the cell-associated radioactivity in a y-counter (Beckman, Gamma 5500). The counts represent the average of three walls. All experiments were repeated at least three times, and similar results were obtained. 125I-VEGF cross-linked complexes were resolved by 6% SDS-PAGE, and the gels were exposed to a phosphor screen and scanned after 24 h by a PhosphorImager (Molecular Dynamics). Subsequently, the gels were exposed to x-ray film.

KDR/Flk-1 [2] = assay: Cross-linking of 125I-VEGF121 to KDR/Flk-1 of HUVEC; assay type: binding, human; details: 15 ug/ml fusion protein, FIG. 8 lane 2
Description: FIG. 8. GST-Ex 7+8 fusion protein inhibits cross-linking of ^125I-VEGF121 to KDR/Flk-1 of HUVEC ^125I-VEGF121 (2˜0 ng/ml) was bound to subconfluent cultures of HUVEC in 6-cm dishes. The binding was carried out in the presence (lane 2) or the absence (lane 1) of 15 ug/ml GST-Ex 7+8. Heparin (1 ug/ml) was added to each dish. At the end of a 2-h incubation, ^125I-VEGF was chemically cross-linked to the cell surface. The cells were lysed, and proteins were resolved by 6% SDS-PAGE. The gel was dried and exposed to x-ray film.
as §1

KDR/Flk-1 [3] = target: KDR/Flk-1 (Homo sapiens, UniProt P35968); assay: Direct binding/cross-linking of 125I-GST-Ex 7 to HUVEC: KDR/Flk-1; parameters: HUVEC, which express both KDR/Flk-1 and VEGF165R; endogenous in cells; host or cells: HUVEC (ATCC); details: cross-linking, 1 ug/ml heparin, FIG. 1 lane 3
Description: FIG. 1. Cross-linking of 1 ^125I-VEGF165, ^125I-VEGF121 and ^125I-GST-EX 7 to HUVEC. ^125I-VEGF165 (5 ng/ml) (lane 1) or ^125I-VEGF121 (10 ng/ml) (lane 2) or ^125I-GST-EX 7 (50 nglml) (lane 3) were bound to subconfluent cultures of HUVEC in 6-cm dishes. The binding was carried out in the presence of 1 ug/ml heparin. At the end of a 2-H incubation, each ^125I-VEGF isoform was chemically cross-linked to the cell surface. The cells were lysed and proteins were resolved by 6% SDS-PAGE. The polyacrylamide gel was dried and exposed to x-ray film.
as §1

[4] = target: T1, KDR/Flk-1 on PAE-KDR cells (Homo sapiens, UniProt P35968); assay: Inhibition of 125I-VEGF165 binding to PAE-KDR cells; parameters: species or system porcine endothelial cells transfected to express KDR/Flk-1; details: 125I-VEGF165 5 ng/ml, FIG. 3C
T1 construct: expressed in transfected cells; host or cells: porcine endothelial cells (PAE), gift of Dr. Claesson-Welsh
Description: FIGS. 3A-3C. Inhibition of ^125I-VEGF165 binding to HUVEC, MDA MB 231 cells, and PAE-KDR cells by GST-EX 7+8. ^125I-VEGF165 (5 ng,/ml) was bound to subconfluent cultures of HUVEC (3A), MDA MB 23 1 cells (3B), and PAE-KDR cells (3C) in 48-well dishes in the presence of increasing amounts of GST-Ex 7+8 (closed 20 square) or control GST protein (open squares). At the end of a 2-h incubation, the cells were washed and lysed, and the cell-associated radioactivity was determined with a γ-counter. The counts obtained are expressed as the percentage of the counts obtained in the presence of PBS without addition of GST or fusion protein.
Human umbilical vein endothelial cells (HUVEC) were obtained from the American Type Culture Collection (ATCC) (Rockville, Md.) and grown on gelatin-coated dishes in M-199 medium containing 20% fetal calf serum (FCS) and a mixture of glutamine, penicillin, and streptomycin (GPS). Basic FGF (1 nglml) was added to the culture medium every other day. Porcine endothelial cells (PAE), parental and transfected to express KDRElk-1 (PAE-KDR), were kindly provided by Dr. Lema Claesson-Welsh and grown in F12 medium containing 10% FCS and GPS as described (Waltenberger, et al., J. Biol. Chem., 269,26988-26995 (1994)). MDAMB-231 (231) cells were obtained from ATCC and grown in Bulbecoo's modified Eagle's medium containing 10% FCS and GPS.
as §1

KDR/Flk-1 (Homo sapiens, UniProt P35968), sequence (P35968 20-1356): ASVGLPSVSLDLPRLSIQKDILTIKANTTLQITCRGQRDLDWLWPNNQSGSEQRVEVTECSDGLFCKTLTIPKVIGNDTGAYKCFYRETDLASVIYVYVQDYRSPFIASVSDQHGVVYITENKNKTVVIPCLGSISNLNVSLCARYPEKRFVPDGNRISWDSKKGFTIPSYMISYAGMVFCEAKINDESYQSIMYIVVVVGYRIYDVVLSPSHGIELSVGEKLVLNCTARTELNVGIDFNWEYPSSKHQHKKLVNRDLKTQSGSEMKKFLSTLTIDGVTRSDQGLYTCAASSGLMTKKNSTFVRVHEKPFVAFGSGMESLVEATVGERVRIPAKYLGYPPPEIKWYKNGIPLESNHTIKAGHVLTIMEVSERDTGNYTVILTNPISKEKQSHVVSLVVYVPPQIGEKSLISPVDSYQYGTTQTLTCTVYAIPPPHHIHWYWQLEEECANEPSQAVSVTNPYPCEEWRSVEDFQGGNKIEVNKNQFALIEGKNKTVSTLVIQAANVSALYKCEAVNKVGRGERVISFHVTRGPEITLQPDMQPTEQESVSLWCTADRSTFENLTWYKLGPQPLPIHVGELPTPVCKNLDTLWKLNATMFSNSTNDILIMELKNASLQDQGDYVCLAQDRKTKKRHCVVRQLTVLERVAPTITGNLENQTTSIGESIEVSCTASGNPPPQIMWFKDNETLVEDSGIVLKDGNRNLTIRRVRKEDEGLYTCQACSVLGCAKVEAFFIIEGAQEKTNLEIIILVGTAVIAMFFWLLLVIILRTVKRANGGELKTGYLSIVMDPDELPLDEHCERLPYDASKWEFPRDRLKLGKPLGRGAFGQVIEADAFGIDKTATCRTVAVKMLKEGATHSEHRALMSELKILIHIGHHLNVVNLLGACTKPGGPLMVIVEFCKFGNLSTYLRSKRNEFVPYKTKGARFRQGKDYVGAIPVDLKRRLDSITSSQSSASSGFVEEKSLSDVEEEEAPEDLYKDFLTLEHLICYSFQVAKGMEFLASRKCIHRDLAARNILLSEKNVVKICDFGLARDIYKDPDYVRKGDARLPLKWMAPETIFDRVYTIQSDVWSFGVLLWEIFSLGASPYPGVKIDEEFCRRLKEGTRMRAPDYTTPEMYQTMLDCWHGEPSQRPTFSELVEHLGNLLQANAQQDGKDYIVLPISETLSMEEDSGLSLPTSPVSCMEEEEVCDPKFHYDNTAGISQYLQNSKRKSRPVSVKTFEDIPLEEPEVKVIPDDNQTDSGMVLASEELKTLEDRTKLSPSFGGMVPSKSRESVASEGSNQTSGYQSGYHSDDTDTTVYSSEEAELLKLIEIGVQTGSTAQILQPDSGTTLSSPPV
T1 sequence (P35968 20-1356): as above

- direct binding to KDR/Flk-1 on HUVEC (in words) (KDR/Flk-1 [3]): not and does not bind directly
- inhibition of 125I-VEGF165 binding to PAE-KDR cells (in words) [4]: did not inhibit
Substance: GST-Ex 7+8: GST fusion protein containing the peptide encoded by VEGF165 exons 7 and 8 (PCGPCSERRKHLFVQDPQTCKCSCKNTDSRCKARQLELNERTCRCDKPRR; cysteine pairing not given here; also: GST fusion protein, side of fusion not given here)
- binding/cross-linking of 125I-VEGF165 to KDR/Flk-1 on HUVEC (in words) (KDR/Flk-1 [1]): inhibits indirectly; also recorded: inhibited
- formation of 240-kDa 125I-VEGF121/KDR/Flk-1 cross-linked complexes on HUVEC (in words) (KDR/Flk-1 [2]): significantly inhibited; also recorded: diminished binding
